Test results taken from patent publication US20130039956A1, “USE OF NITROCARBOXYLIC ACIDS FOR THE TREATMENT, DIAGNOSIS AND PROPHYLAXIS OF AGGRESSIVE HEALING PATTERNS” (priority 2010, published 2013).

Columns and labels:
[1] = test system: Human peripheral blood mononuclear cells (PBMCs); assay: Adhesion of serum proteins and monocyte activation induced by coated silicone; assay type: cell-based; settings: dip-coated silicone, PBMCs 3 days; compared with native FA; note: key: 0: not superior to native FA (control); +: Superior to native FA; ++: superior to both; +++: outstanding effect
Method: In order to determine the effect of coating implant materials with nitro fatty acids to reduce adsorption of adhesion molecules and monocyte activation, sterile silicone sheets were out in small pieces and coated with respective nirocarboxylic acid and the corresponding native fatty acids by dip coating. Uncoated silicone pieces served as controls. For each fatty acid two sets of silicone pieces were bathed in freshly drawn human serum for 1 hour at 37° C., and another two sets were bathed in saline solutions. One set of both coated and uncoated pieces was analyzed immediately for adhesion proteins and the other set was placed in 96-well plates after rinsing the silicone pieces. Human peripheral blood mononuclear cells (PBMCs), isolated from three healthy subjects, were added to each well. Wells were incubated for 3 days under standard conditions. Culture supernatants were assayed for IL-1beta, IL-6, IL-8, and chemoattractant protein 1 (MCP-1) levels at the start and end of experiments.
Before analyzing the silicone pieces for protein adsorption, they were bathed in saline for 5 minutes. Thereafter, one side was rinsed with saline as performed for both sides in the set used for culturing. There was marked adsorption of fibrinogen and […] C5b-9 on the uncoated silicone. […] No protein was found on the surface of the nitro fatty acid-coated sample that was rinsed, thus, indicating the weak adherence of serum proteins.

[2] = test system: canine cutaneous mastocytoma cells; assay: Toxin response of mast cells (mastoparan, Streptolysin O, UVB); assay type: cell-based; settings: preincubation 10 and 100 μmol, compared with native FA
Method: In order to determine membrane stabilizing and anticytotoxic properties of nitrated fatty acids, an in vitro model utilizing canine cutaneous mastocytoma cells was chosen. Cells were cultured according to standard procedure. Cytotoxic effects were quantified by measuring not only by Ca^2+ influx, histamine, and TNFα release, but also by using the MTT assay. Cell suspensions were incubated with 0.9% saline, one of the nitrocarboxylic acids as listed in table 1 or the respective native fatty acid as to achieve a final concentration of 10 and 100 μmol which was given to the medium 15 min before toxin application.
Mastoparan suspended in a buffer solution was added to the preincubated mast cell suspensions to achieve a final concentration of 10 or 30 μmol, respectively. Measurements were performed after 1 hour incubation time. […] Preincubation of mast cells with nitrated fatty acids reduced the effects on Ca^2+ influx, histamine release, and apoptosis induction in a dose-dependent manner, with an almost complete absence of apoptosis at a concentration of 100 μmol.
Streptolysin O was given to preincubated suspensions to achieve a final concentration of 500 ng/ml. Measurements were performed after 2 hours. Releases of histamine and TNFα in the suspensions were measured. After saline preincubation, a significant release of histamine and TNFα was observed.
Cell plates were exposed to a single dose (250 mJ/cm2) of UVB using a lamp (Saalmann, Herford, Germany) emitting most of its energy within the UVB range (295 to 315 nm). Tryptase levels in the supernatants were determined after 30 minutes, and concentrations of TNFα after 60 minutes. After preincubation with saline, there was a marked increase of tryptase. Preincubation with native fatty acids led to a dose-dependent reduction of tryptase release, which was significant at the lower irradiation dose but not after exposure to a high irradiation dose. […] For all nitrated fatty acids that were used the results were mostly inside the same range. Relative differences can be represented as follows: […]

[3] = test system: female Sprague-Dawley rats; assay: Fibrogenesis in an in-vivo model of soft implant implantation; design: species or system rat; settings: subcutaneous implants, 120 days, compared with native FA; note: key: 0: not superior to native FA (control); +: Superior to native FA; ++: superior to both; +++: outstanding effect
Method: Silicone bag-gel miniprostheses (POLYTECH Health & Aesthetics GmbH, Dieburg, Germany) having a diameter of 2 cm and a volume of approximately 2 ml were used. […] The experimentally used implant models had two small tags which allowed the implants to be suspended during the coating procedures.
Each implant was treated in the following manner: cleaning by sonication for 2 min each in the following sequence of solvents: acetone, toluene, acetone, ethanol, and water. Implants were exposed to Piranha solution for 60 min and rinsed with deionized water. They were then immersed in a 20% aqueous solution of ammonium fluoride for 45 min to obtain a hydrogen-passivated Si surface. The ammonium fluoride solution was sparged with nitrogen for 15 min to remove dissolved oxygen. Prepared implants were transferred to a glass chamber filled with an inert atmosphere where they were suspended so that no part of their surface came in contact with the container. The container was filled with a 1-hexadecene solution and heated at 150° C. at a pressure of 2 Torr for 120 min. Prepared implants were cleaned in the following sequence of solvents: acetone, ethanol, and water. Formation of self assembled monolayer was controlled by measuring surface hydrophobicity; the contact angle was about 105°. Dry implants suspended in the container were then bathed in an ethanolic solution of oleic acid or nitro-oleic acid at a temperature of 40° C. for 120 min. Thereafter, the solution was allowed to run out slowly through an outlet at the bottom of the container. The emptying container was filled with inert gas in which the samples were maintained for 24 hours. Then samples were bathed three times in an ethanolic solution, followed by a final rinsing with sterile water. After drying, the container with the prepared implant was sterilized using ethylene oxide and stored at 20° C.
For in vivo testing, 24 uncoated and 24 coated implants were investigated in 24 female Sprague-Dawley rats (190-230 g). In the anesthetized animals, bilateral dorsal pockets in the subcutaneum were created by blunt dissection through paired paravertebral incisions. Each animal received one coated implant and one control implant on opposite sides, alternating sides on successive animals. Animals were housed and fed according to institutional standards for 120 days. Animals were sacrificed with chloroform. The implants and the adhering tissue were extracted by en bloc resection. The implants were cannulated and the liquid silicone gel was replaced by paraffin. Thereafter, the complete tissue block was prepared by standard means of histology, and stained with H&E or Masson's trichrome.

[4] = test system: Murine macrophage-like cells RAW 264.7 and murine L929 fibroblasts; assay: Monocyte/fibroblast co-culture on coated surgical suture material; assay type: cell-based; settings: dip-coated suture material, 24 and 48 hours; compared with native FA; note: key: 0: not superior to native FA (control); +: Superior to native FA; ++: superior to both; +++: outstanding effect
Source text: In order to determine immunoreactions to foreign material and its consequence on fibrogenesis, co-cultures of fibroblasts and monocytes were used. Commercially available suture materials (propylene, polyamide, and silk) were dip-coated with corresponding native and nitrated fatty acids. Untreated suture material served as control. Treated and untreated suture materials were out in small pieces and placed in a 96-well plate.
Murine macrophage-like cells RAW 264.7 and murine L929 fibroblasts were cultured to a population density of 5×10(5) each. Cell suspensions were merged achieving a cellularity of approximately 2.5×10(5) cell/ml of each cell population which were added to the wells. The suture material samples were fully covered by the suspension. Wells were continuously and gently shaken throughout the incubation period.
Supernatants were collected for assays after 24 and 48 hours and analyzed for profibrotic cytokines IL-13, IL-4, and IL-6, TGF-β1, collagen I.

[5] = test system: human umbellical endothelial cells (HUVEC); assay: Adhesion, propagation and growth of endothelial cells on coated polystyrene films; assay type: cell-based; settings: days 3, 7, 14, compared with native FA; note: key: 0: not superior to native FA (control); +: Superior to native FA; ++: superior to both; +++: outstanding effect
Method: Polystyrene scaffolds were prepared and pretreated in the same manner as performed in example 1 by using the same nitrocarboxylic acids as listed in table 1. The film samples were placed in a culture dish containing a gel matrix, in which human umbellical endothelial cells (HUVEC) had been allowed to grow to confluence. The culture medium consisted of 5% FCS, which was replaced every 5 days. Cultivation was performed according to standard conditions. Films were evaluated at days 3, 7, and 14 after careful extraction from the culture dishes, rinsing with saline solution, and staining with methylene blue. Using a reflected light microscope, the films were immediately examined to evaluate the following: Propagation of cells to the film center, cell confluidity, multilayer formation, and cell shape.

Compound	Relative effect on serum protein adhesion and monocyte activation [1]	Relative differences: effect on toxin response of mast cells [2]	Relative effect of surface coating on fibrogenesis around silicone implants [3]	Relative effect on profibrotic cytokines and collagen I on suture material [4]	Relative differences: effect on adhesion, propagation and growth of endothelial cells [5]
CC/C=C\C/C=C\C/C=C(/CCCCCCCC(=O)O)[N+](=O)[O-] [compound 6, 9-nitro-all-cis-9-12,15-octadecatrienoic acid]	+	++	++	+	++
CCCCCCCC/C=C(/CCCCCCCCCCCCCC(=O)O)[N+](=O)[O-] [compound 8, 15-nitro-cis-15-tetracosenoic acid]	+	+	+	+	+
CCCCCCCC/C=C(\CCCCCCCC(=O)O)[N+](=O)[O-] [compound 9, 9-nitro-trans-oleic acid]	+	++	+	+	+
CCCCC=C(C=CC=CCCCCCCCC(=O)O)[N+](=O)[O-] [compound 11, 13-nitro-octadeca-9,11,13-trienoic acid]	+	+	+	0	+
CCCCCC/C=C(\CCCCCCCC(=O)O)[N+](=O)[O-] [compound 16, 9-nitro-9-trans-hexadecenoic acid]	0	++	0	+	+
CCCCCC=CCC=C(CC=CC/C=C\CCCC(=O)O)[N+](=O)[O-] [compound 22, 11-nitro-cis-5,8,11,14-eicosatetraenoic acid]	+	++	++	+	++
